{
  "source": "patent US20240190872A1",
  "about": "“FABI INHIBITORS FOR GRAM-NEGATIVE PATHOGENS” (THE BOARD OF TRUSTEES OF THE UNIVERSITY OF ILLINOIS, priority 2021, published 2024)",
  "key": {"E. coli MG1655": {"tested_on": "E. coli MG1655", "test": "Antimicrobial susceptibility test (MIC)", "assay_type": "cell-based", "details": "Escherichia coli, MG1655", "in_short": "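CLSI micro-dilution broth method in cation-adjusted Mueller-Hinton broth, in biological triplicate; human serum (pooled, filtered) was also used.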"}, "CYP 2D6": {"target": "CYP 2D6 (Homo sapiens (Human), UniProt P10635)", "sequence (P10635 whole entry)": "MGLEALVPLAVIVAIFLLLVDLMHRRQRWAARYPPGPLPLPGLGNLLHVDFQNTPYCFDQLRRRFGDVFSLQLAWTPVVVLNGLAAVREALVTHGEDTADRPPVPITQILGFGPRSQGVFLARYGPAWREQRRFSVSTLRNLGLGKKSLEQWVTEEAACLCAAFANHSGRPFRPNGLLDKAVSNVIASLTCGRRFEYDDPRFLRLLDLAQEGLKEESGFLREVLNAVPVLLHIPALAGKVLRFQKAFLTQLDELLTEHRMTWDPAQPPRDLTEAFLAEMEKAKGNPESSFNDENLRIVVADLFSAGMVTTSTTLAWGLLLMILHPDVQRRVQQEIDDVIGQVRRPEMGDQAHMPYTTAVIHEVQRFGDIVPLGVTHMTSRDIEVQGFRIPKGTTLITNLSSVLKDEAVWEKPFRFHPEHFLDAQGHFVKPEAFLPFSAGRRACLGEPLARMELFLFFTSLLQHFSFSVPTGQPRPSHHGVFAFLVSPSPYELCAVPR", "test": "biochemical"}},
  "data": [
    {"smiles": "Cc1c(CN(C)C(=O)/C=C/c2cnc3c(c2)CC[C@H](N)C(=O)N3)oc2ccccc12", "note": "[(S)-11, (S,E)-3-(7-amino-8-oxo-6,7,8,9-tetrahydro-5H-pyrido[2,3-b]azepin-3-yl)-N-methyl-N-((3-methylbenzofuran-2-yl)methyl)acrylamide]", "values": [
      {"measurement": "MIC", "setting": "E. coli MG1655", "result": 2, "unit": "µg/mL"},
      {"measurement": "IC50", "setting": "CYP 2D6", "result": 65, "unit": "µM"}
    ]}
  ]
}
